Results from patent US7494980B2, “Antimicrobial peptide and methods of use thereof” (The United States of America as represented by the …, priority 2003, dated 2009).
Ends that are not written are not given here.

Assays:
S. mutans LT11 = test: In vitro susceptibility (broth microdilution MIC, MBC by spiral-plating); type: cell-based, Streptococcus mutans; details: 4 × 10^7 cells ml^−1, 24-48 h
Source text: (§1) Strains used in Examples 3-6 included ATCC and laboratory strains of different oral bacteria. These included: Actinomyces naeslundii strain T14V-J1, Actinomyces israelii ATCC 10049, Streptococcus mutans strains LT 11 and ATCC 25175, Streptococcus sobrinus ATCC 33478, Streptococcus gordonii strains DL1 and ATCC 51656, Streptococcus sanguis strains SK36 and ATCC 10556, Streptococcus salivarius ATCC 9222, Streptococcus oralis strains 34 and ATCC 35037, Lactobacillus salivarius ATCC 29602, Lactobacillus acidophilus ATCC 4357, and Actinobacillus actinomycetemcomitans ATCC 43718. S. mutans strain LT 11 was kindly provided by Lin Tao, University of Illinois at Chicago, Ill. S. gordonii DLI, S. sanguis SK36, and S. oralis 34 were provided by John Cisar, National Institute of Dental and Craniofacial Research, NIH, Bethesda, Md. […]
(§2) MICs were determined as described by Fuchs et al. (1998) with a slight modification. […] The MIC was defined as the lowest concentration of the peptide that prevented visible turbidity, as measured at 600 nm by using an ELISA reader (Titertek Multiskan MCC/340). […] Minimum bactericidal concentrations (MBCs) were determined by spiral-plating (Spiral Plater Autoplate 4000; Spiral Biotech) 50 μl from each clear well (≧MIC) onto BAP.

S. mutans ATCC 25175 [1] = test: Bactericidal assay (log reduction in viable counts); type: cell-based, Streptococcus mutans
Source text: (§3) Strains used in Examples 3-6 included ATCC and laboratory strains of different oral bacteria. These included: Actinomyces naeslundii strain T14V-J1, Actinomyces israelii ATCC 10049, Streptococcus mutans strains LT 11 and ATCC 25175, Streptococcus sobrinus ATCC 33478, Streptococcus gordonii strains DL1 and ATCC 51656, Streptococcus sanguis strains SK36 and ATCC 10556, Streptococcus salivarius ATCC 9222, Streptococcus oralis strains 34 and ATCC 35037, Lactobacillus salivarius ATCC 29602, Lactobacillus acidophilus ATCC 4357, and Actinobacillus actinomycetemcomitans ATCC 43718. S. mutans strain LT 11 was kindly provided by Lin Tao, University of Illinois at Chicago, Ill. S. gordonii DLI, S. sanguis SK36, and S. oralis 34 were provided by John Cisar, National Institute of Dental and Craniofacial Research, NIH, Bethesda, Md.
(§4) The bactericidal assay was performed according to procedures described by Miyasaki et al. (1997, 1998) with a slight modification. […] Susceptibility was determined by examining the log reduction in viability counts of organisms that had been exposed to different concentrations of KSL. […] Bactericidal activity was also expressed as the 99% effective dose (ED99), which is the concentration of the antimicrobial decapeptide at which there is a 2-log or more reduction in c.f.u. […]
(§5) In addition to the determinations of MICs and MBCs of KSL, log reductions in viable counts of selected oral bacteria caused by KSL were also determined. […] With the exception of Actinobacillus actinomycetemcomitans, for which the assays were performed in 0.01% BHI, bactericidal action of KSL was determined in isotonic HBSS after incubation with the targeted bacteria for 1 h at 37° C. KSL at 6.25 μg ml^−1, which was determined to be the 99% effective dose (ED99), caused more than 2 log reductions in viable counts of the organisms tested, which included L. salivarius ATCC 29602 (FIG. 3a), S. mutans ATCC 25175^T (FIG. 3b), S. gordonii ATCC 51656 (FIG. 3c), and Actinobacillus actinomycetemcomitans ATCC 43718 (FIG. 3d).

[2] = test system: Actinobacillus actinomycetemcomitans ATCC 43718; test: In vitro susceptibility (broth microdilution MIC, MBC by spiral-plating); type: cell-based; details: 4 × 10^7 cells ml^−1, 24-48 h
Source text: as §1, §2

L. salivarius ATCC 29602 [3] = test: as above; type: cell-based, Lactobacillus salivarius; details: 24-48 h
Source text: as §1, §2

S. sanguis SK36 = test: as above; type: cell-based, Streptococcus sanguis; details: 24-48 h
Source text: as §3
(§6) Todd-Hewitt broth (THB), brain heart infusion (BHI) broth, Todd-Hewitt agar (THA), trypticase soy agar (TSA), lactobacilli MRS (MRS) broth, Actinomyces broth and Mueller-Hinton broth (MHB) were purchased from Becton Dickinson. Blood agar plates (BAP) were prepared by supplementing TSA with 5% sheep blood (PML Microbiologicals). All cultures, except for Actinobacillus actinomycetemcomitans, S. mitis and Actinomyces israelii, were grown at 37° C. in room air. Actinobacillus actinomycetemcomitans cultures were grown on BAP or in MHB supplemented with 15 μg haemin ml^−1 (Sigma), 15 μg β-nicotinamide adenine dinucleotide (NAD) ml^−1 (Sigma) and 5% yeast extract (Becton Dickinson) at 37° C. in 5% CO2. S. mitis was grown on BAP or in BHI broth at 37° C. in 5% CO2. Actinomyces israeilli was grown anaerobically in an anaerobic chamber (Coy Laboratory Products) in a 5% CO2/10% H2/85% N2 atmosphere.
(§7) MICs were determined as described by Fuchs et al. (1998) with a slight modification. Procedures were based on the National Committee for Clinical Laboratory Standards broth microdilution method. MHB was used as the main assay medium for most of the tested organisms. Freshly grown cultures at exponential phase were used as the inoculum. Bacteria were centrifuged at 4000 r.p.m. for 15 min at 4° C., suspended in 2× concentrated medium and adjusted to 4×106 c.f.u ml−1 in 2× concentrated medium. Aqueous peptide solution (100 μl) was added to each well of a 96-well, flat-bottomed plate (Becton Dickinson). […] The MIC was defined as the lowest concentration of the peptide that prevented visible turbidity, as measured at 600 nm by using an ELISA reader (Titertek Multiskan MCC/340). […] Minimum bactericidal concentrations (MBCs) were determined by spiral-plating (Spiral Plater Autoplate 4000; Spiral Biotech) 50 μl from each clear well (≧MIC) onto BAP.

S. sanguis ATCC 10556 = test: as above; type: cell-based, Streptococcus sanguis; details: 24-48 h
Source text: as §3, §6, §7

L. salivarius ATCC 29602 [4] = test: Bactericidal assay (log reduction in viable counts); type: cell-based, Lactobacillus salivarius
Source text: as §3, §4, §5

[5] = test system: saliva bacteria (facultative anaerobic oral bacteria collected from saliva); test: In vitro killing of saliva bacteria; type: cell-based; details: 200 μg KSL ml^−1, 30 min at 37° C., vs PBS
Protocol: The killing assay of saliva bacteria was done according to procedures established by Helmerhorst et al. (1999). Unstimulated saliva was collected from four healthy individuals who had refrained from eating for at least 2 hours. The study was approved by the Institutional Review Board of the Walter Reed Army Institute of Research and informed consent and sample donation consent were obtained from all volunteers. Pooled saliva was initially spun at 500 r.p.m. in an Eppendorf centrifuge (model 5810R) for 10 min at 4° C. to remove epithelial cells and mucus. Saliva bacteria were collected by spinning the supernatant at 4000 r.p.m. for 15 min at 4° C. The pellet was washed three times in 10 mM potassium phosphate buffer (PPB) and suspended in the same buffer to give approximately 1.0×10^7 cells ml^−1. Bacterial suspension (250 μl) was mixed with 250 μl peptide to obtain final peptide concentrations of 12.5, 25, 50, 100 and 200 μg ml^−1. After incubation of the mixture at 37° C. for 30 min, cells were spun down to remove KSL, washed once in PBS having a pH of 7.4 and suspended in PBS before spiral-plating 50 μl of the treated and untreated cells in different dilutions on BAP. The negative control was exposed to buffer only. Saliva bacteria exposed to 0.12% aqueous chlorhexidine served as positive controls. […]

S salivarius ATCC 9222 = test: In vitro susceptibility (broth microdilution MIC, MBC by spiral-plating); type: cell-based, Streptococcus salivarius; details: 24-48 h
Source text: as §1, §2

S. mutans ATCC 25175 [6] = test: as above; type: cell-based, Streptococcus mutans
Source text: as §3
as §6, with “Actinomyces israeilli was grown anaerobically in an anaerobic chamber (Coy Laboratory Products) in a 5% CO2/10% H2/85% N2 atmosphere.” left out
as §2

S. oralis ATCC 35037 = test: as above; type: cell-based, Streptococcus oralis; details: MHB; 4 × 10^6 cells ml^−1; 37° C., 24-48 h
Source text: as §1, §2

[7] = MHB, 4 × 10^6 cells ml^−1, 37° C.

KKVVFKVKFK-NH2 [KSL, lys-lys-val-val-phe-lys-val-lys-phe-lys]
MIC (S. mutans LT11; MHB, 37° C.): 25 µg/mL | MBC (S. mutans LT11; clear MIC wells plated on BAP): 100 µg/mL | log reduction in viable counts (S. mutans ATCC 25175 [1]; 6.25 μg ml^−1, HBSS, FIG. 3b): more than 2 log | reduction in viability (S. mutans ATCC 25175 [1]; concentrations of <10 μg ml^−1): > 3 logs | ED99 (99% effective dose) (S. mutans ATCC 25175 [1]; isotonic HBSS, 1 h at 37° C.): 6.25 µg/mL | MIC ([2]; 50% BHI, 5% CO2, 37° C.): 100 µg/mL | MBC ([2]; clear MIC wells plated on BAP): 200 µg/mL | MIC (L. salivarius ATCC 29602 [3]; 10% MRS, 4 × 10^6 cells ml^−1, 37° C.): 3.13 µg/mL | MBC (L. salivarius ATCC 29602 [3]; clear MIC wells plated on BAP): 12.5 µg/mL | MIC (S. sanguis SK36; [7]): 25 µg/mL | MBC (S. sanguis SK36; clear MIC wells plated on BAP): 50 µg/mL | MIC (S. sanguis ATCC 10556; [7]): 25 µg/mL | MBC (S. sanguis ATCC 10556; clear MIC wells plated on BAP): 100 µg/mL | log reduction in viable counts (L. salivarius ATCC 29602 [4]; 6.25 μg ml^−1, HBSS, FIG. 3a): more than 2 log | reduction in viability (L. salivarius ATCC 29602 [4]; concentrations of <10 μg ml^−1): > 3 logs | ED99 (99% effective dose) (L. salivarius ATCC 29602 [4]; isotonic HBSS, 1 h at 37° C.): 6.25 µg/mL | log reduction in facultative anaerobes in saliva [5]: 1.05 log | MIC (S salivarius ATCC 9222; [7]): 50 µg/mL | MBC (S salivarius ATCC 9222; clear MIC wells plated on BAP): 100 µg/mL | concentration inhibiting growth effectively (S. mutans ATCC 25175 [6]): < 25 µg/mL | MIC (S. mutans ATCC 25175 [6]; MHB, 4 × 10^6 cells ml^−1, 37° C., 24-48 h): 6.25 µg/mL | MBC (S. mutans ATCC 25175 [6]; clear MIC wells plated on BAP, 24-48 h): 12.5 µg/mL | MIC (S. oralis ATCC 35037): 100 µg/mL
